Experimental findings from US12502393B2, “Dual mode of action soluble guanylate cyclase activators and phosphodiesterase inhibitors and uses thereof” (TOPADUR PHARMA AG, priority 2018, dated 2025) are described below.

Data set [1] has as its target T1, recombinant human (rh) PDE5A (Homo sapiens, UniProt O76074).
T1 construct: GST; purchased SIGMA E9034
The data set is described as follows: Phosphodiesterase-5 activity assay (radiometric SPA). As to conditions: rhPDE5A1, 0.5 μM cGMP, 20 min at 37° C. The data set is classed as biochemical.

Data set [2] is described as follows: Human plasma protein binding. The data set is classed as in vitro ADME. As to conditions: for fraction unbound: human. As for the experimental part: An aliquot of 200 μL of human plasma containing test compound was spiked into donor well (red chamber) of the insert. 350 μL of PBS was spiked into receiver well (white chamber) of the insert.
The samples were matrix equilibrated with opposite matrix (25 μL of plasma/buffer sample was matched with 25 μL of blank buffer/plasma). Matrix matched samples were precipitated with 200 μL of acetonitrile containing internal standard. Samples were vortexed at 1000 rpm for 5 min and centrifuged at 4000 rpm for 10 min. Supernatant was separated, diluted 2 fold with water and analysed in LC-MS/MS. (Table 2).

Data set [3] deals with Human Trabecular Meshwork Cells. The data set is described as follows: Cellular cGMP assay in human trabecular meshwork cells. In kind it is cell-based. As to conditions: HTMC, 10 μM Riociguat; for Concentration (nM) for 3-fold or 2-fold* cGMP increase vs Baseline: 2-fold increase (values marked *); for Ratio Maximum cGMP increase vs Baseline: 5 mM GSH, incubation 2 h.
The test system of a further data set is Human Platelets. As to the kind of experiment: Total cGMP in human platelets. The data set is classed as cell-based. As to conditions: for Ratio Maximum cGMP increase vs Baseline: 1 μM riociguat and 100 nM BAY 190954, incubation 2 h; for Concentration (nM) for 3-fold cGMP or 2-fold* increase vs Baseline: 2-fold increase (values marked *), 1 μM riociguat, 100 nM BAY 190954. As for the experimental part:
Effects of test and reference compounds on total cGMP in human platelets were investigated as described by Dunkern and Hatzelmann (Cell Signal. 17: 331-9, 2005) with modifications. Briefly, buffy coats (acquired form SRK Blutspende Zurich) were 4-fold diluted in 150 mM sodium chloride solution containing 0.9% sodium citrate and centrifuged at 200 g for 10 min. The resulting platelet-rich plasma was supplemented with a 1/10 volume of ACD solution (85 mM sodium citrate, 111 mM D-glucose, 71 mM citric acid, pH 4.4) and apyrase (Sigma AG) to a final concentration of 2 U/ml. After another centrifugation (1400 g, 10 min) the cellular pellet was resuspended in Ca2+/Mg2+-free Hepes-Tyrode buffer (134 mM NaCl, 12 mM NaHCO3, 2.9 mM KCl, 0.36 mM NaH2PO4, 5 mM HEPES, 5 mM glucose, 0.5% (w/v) bovine serum albumin, pH 7.4) and platelets were counted.
Platelets were used at 9×10^7 cells in 100 μl per well and after adding test and reference compounds the incubation volume was 200 μl per well in Hepes-Tyrode. Experiments in platelets were done in presence of 1 μM riociguat and 100 nM BAY 190954 (PDE2 inhibitor) (Lucerna Chem AG) and test/reference compounds were added after a preincubation time of 15 min. At the end of the incubation time (see below) the reaction was terminated by adding 20 μl of 2N HCl per well. Following a 20 sec on a plate shaker (300 rpm) the plate was left for 15 min and then centrifuged at 1000×g for 5 min. Supernatants were stored at −80° C.
cGMP was determined by a commercially available ELISA kit (Direct cGMP ELISA kit, Enzo Life Sciences AG, Lauren, Switzerland) with a lower detection limit of 0.08 pmol/ml using the acetylation protocol following manufacturer's instructions. Results are given as the means from at least two independent experiments each in triplicate.
To study concentration-dependent effects on total cGMP test and reference compounds were investigated from 0.1 nM to 1 μM in half-logarithmic steps with an incubation time of 2 h. To examine the time course the incubation times were (min) 10, 30, 60, 90, 120 at 1 μM of test or reference compound.
Compounds were diluted from stock solutions in DMSO. The final concentration of DMSO in all wells including the vehicle controls was 0.2% for human trabecular meshwork and rat aortic smooth muscle cells and 0.3% for platelets.
From time course experiments, the time to half of the maximum cGMP increase with 1 μM of test compound has been extrapolated (t0.5max).

Setting [4] is: read-out: % Unbound in human plasma.
Where [5] appears, read: read-out: % Bound in human plasma (converted).

The structures appear in SMILES notation. Where two headings read alike, the source gives them in different places.

What is called IC50 is the concentration needed to halve the response being measured. `CCCc1nc(C)c2c(=O)[nH]c(-c3cc(S(=O)(=O)N4CCC(CC(C)(CO[N+](=O)[O-])CO[N+](=O)[O-])CC4)ccc3OCC)nn12` [Compound 2o, 2-((1-((4-ethoxy-3-(5-methyl-4-oxo-7-propyl-3,4-dihydroimidazo[5,1-f][1,2,4]triazin-2-yl)phenyl)sulfonyl)piperidin-4-yl)methyl)-2-methylpropane-1,3-diyl dinitrate]: the IC50 in data set [1] is 0.52 nM. For the same molecule, the “% Bound in human plasma” value in data set [2] was determined as 99.95%. The fraction unbound in data set [2] (setting [4]) came out at 0.0005. For the same molecule, in data set [3], the “Concentration (nM) for 3-fold or 2-fold* cGMP increase vs Baseline” value was 1.9* nM and the “Ratio Maximum cGMP increase vs Baseline” value amounted to 86.9. In the data set with Human Platelets, the “Ratio Maximum cGMP increase vs Baseline” value amounted to 202.8 and the “Concentration (nM) for 3-fold cGMP or 2-fold* increase vs Baseline” value is reported as 120* nM.

As to `CCCc1nc(C)c2c(=O)[nH]c(-c3cc(S(=O)(=O)N4CCC(C(O)(CCO)CCO)CC4)ccc3OCC)nn12` [Compound 28, 2-(2-ethoxy-5-((4-(1,3,5-trihydroxypentan-3-yl)piperidin-1-yl)sulfonyl)phenyl)-5-methyl-7-propylimidazo[5,1-f][1,2,4]triazin-4(3H)-one], the IC50 in data set [1] was 0.19 nM. The fraction unbound in data set [2] (setting [5]) and in data set [2] (setting [4]) was 0.069 throughout.

Consider `CCCc1nc(C)c2c(=O)[nH]c(-c3cc(S(=O)(=O)N4CCC(C(O)(CCO[N+](=O)[O-])CCO[N+](=O)[O-])CC4)ccc3OCC)nn12` [Compound 2h, 3-(1-((4-ethoxy-3-(5-methyl-4-oxo-7-propyl-3,4-dihydroimidazo[5,1-f][1,2,4]triazin-2-yl)phenyl)sulfonyl)piperidin-4-yl)-3-hydroxypentane-1,5-diyl dinitrate], for which the 50% inhibitory concentration (IC50) in data set [1] amounted to 1 nM. In addition, the “% Bound in human plasma” value in data set [2] amounted to 99.77%. Moreover, the fraction unbound in data set [2] (setting [4]) is 0.0023. In addition, the “Ratio Maximum cGMP increase vs Baseline” value with Human Platelets was 171.3.

`CCCc1nn(C)c2c(=O)[nH]c(-c3cc(S(=O)(=O)N4CCC(C(O)C(CO[N+](=O)[O-])CO[N+](=O)[O-])CC4)ccc3OCC)nc12` (racemic) [Compound 1i, 2-((1-((4-ethoxy-3-(1-methyl-7-oxo-3-propyl-6,7-dihydro-1H-pyrazolo[4,3-d]pyrimidin-5-yl)phenyl)sulfonyl)piperidin-4-yl)(hydroxy)methyl)propane-1,3-diyl dinitrate]: the IC50 in data set [1] worked out at 4.2 nM. In data set [2], the “% Bound in human plasma” value came out at 99.85%. The fraction unbound in data set [2] (setting [4]) was 0.0015.

Regarding `CCCc1nc(C)c2c(=O)[nH]c(-c3cc(S(=O)(=O)N4CCC(C(O)C(CO[N+](=O)[O-])CO[N+](=O)[O-])CC4)ccc3OCC)nn12` (stereo not drawn) [Compound 2i, 2-((1-((4-ethoxy-3-(5-methyl-4-oxo-7-propyl-3,4-dihydroimidazo[5,1-f][1,2,4]triazin-2-yl)phenyl)sulfonyl)piperidin-4-yl)(hydroxy)methyl)propane-1,3-diyl dinitrate], in data set [1], the IC50 came to 1.5 nM. The “% Bound in human plasma” value in data set [2] worked out at 99.99%. The fraction unbound in data set [2] (setting [4]) is 0.0001. Also, the “Ratio Maximum cGMP increase vs Baseline” value in the data set with Human Platelets is 932.9.

For `CCCc1nc(C)c2c(=O)[nH]c(-c3cc(S(=O)(=O)N4CCC(CC(CO[N+](=O)[O-])CO[N+](=O)[O-])CC4)ccc3OCC)nn12` [Compound 2m, 2-((1-((4-ethoxy-3-(5-methyl-4-oxo-7-propyl-3,4-dihydroimidazo[5,1-f][1,2,4]triazin-2-yl)phenyl)sulfonyl)piperidin-4-yl)methyl)propane-1,3-diyl dinitrate], the IC50 in data set [1] is 0.44 nM. Moreover, the “% Bound in human plasma” value in data set [2] stood at 99.92%. Moreover, in data set [2] (setting [4]), the fraction unbound is 0.0008. Further, in the data set with Human Platelets, the “Ratio Maximum cGMP increase vs Baseline” value is listed as 262.3.

As for `CCCc1nc(C)c2c(=O)[nH]c(-c3cc(S(=O)(=O)N4CCC(CC(C)(CO)CO[N+](=O)[O-])CC4)ccc3OCC)nn12` (stereo not drawn) [Compound 2p, 3-(1-((4-ethoxy-3-(5-methyl-4-oxo-7-propyl-3,4-dihydroimidazo[5,1-f][1,2,4]triazin-2-yl)phenyl)sulfonyl)piperidin-4-yl)-2-(hydroxymethyl)-2-methylpropyl nitrate], the IC50 in data set [1] amounted to 0.11 nM. In data set [2], the “% Bound in human plasma” value is 99.66%. Moreover, the fraction unbound in data set [2] (setting [4]) amounted to 0.0034. Besides, in data set [3], the “Concentration (nM) for 3-fold or 2-fold* cGMP increase vs Baseline” value is listed as 1.4* nM and the “Ratio Maximum cGMP increase vs Baseline” value came out at 46.1. Besides, in the data set on Human Platelets, the “Ratio Maximum cGMP increase vs Baseline” value is 204.1 and the “Concentration (nM) for 3-fold cGMP or 2-fold* increase vs Baseline” value is 102* nM.

In the case of `CCCc1nn(C)c2c(=O)[nH]c(-c3cc(S(=O)(=O)N4CCC(C(O)C(CO)CO)CC4)ccc3OCC)nc12` (stereo not drawn) [Compound 22, 5-(5-((4-(1,3-dihydroxy-2-(hydroxymethyl)propyl)piperidin-1-yl)sulfonyl)-2-ethoxyphenyl)-1-methyl-3-propyl-1,6-dihydro-7H-pyrazolo[4,3-d]pyrimidin-7-one], the IC50 in data set [1] amounted to 8.5 nM. Further, the fraction unbound in data set [2] (setting [5]) and in data set [2] (setting [4]) was 0.036 throughout.

For the molecule `CCCc1nc(C)c2c(=O)[nH]c(-c3cc(S(=O)(=O)N4CCC(CC(CO)CO[N+](=O)[O-])CC4)ccc3OCC)nn12` (stereo not drawn) [Compound 2n, 3-(1-((4-ethoxy-3-(5-methyl-4-oxo-7-propyl-3,4-dihydroimidazo[5,1-f][1,2,4]triazin-2-yl)phenyl)sulfonyl)piperidin-4-yl)-2-(hydroxymethyl)propyl nitrate], in data set [1], the IC50 came to 0.47 nM. Further, the “% Bound in human plasma” value in data set [2] was 99.48%. In addition, the fraction unbound in data set [2] (setting [4]) was determined as 0.0052. For the same molecule, the “Ratio Maximum cGMP increase vs Baseline” value in the data set on Human Platelets is 161.0.

`CCCc1nc(C)c2c(=O)[nH]c(-c3cc(S(=O)(=O)N4CCC(CC(CO)CO)CC4)ccc3OCC)nn12` [Compound 43, 2-(2-ethoxy-5-(4-(3-hydroxy-2-(hydroxymethyl)propyl)piperidin-1-ylsulfonyl)phenyl)-5-methyl-7-propylimidazo[1,5-f][1,2,4]triazin-4(3H)-one]: the IC50 in data set [1] amounted to 0.13 nM. The fraction unbound in data set [2] (setting [5]) and in data set [2] (setting [4]) was 0.022 each time. In addition, in the data set with Human Platelets, the “Ratio Maximum cGMP increase vs Baseline” value came to 28.5.

In the case of `CCCc1nc(C)c2c(=O)[nH]c(-c3cc(S(=O)(=O)N4CCC(CC(C)(CO)CO)CC4)ccc3OCC)nn12` [Compound 47, 2-(2-ethoxy-5-((4-(3-hydroxy-2-(hydroxymethyl)-2-methylpropyl)piperidin-1-yl)sulfonyl)phenyl)-5-methyl-7-propylimidazo[5,1-f][1,2,4]triazin-4(3H)-one], the IC50 in data set [1] is 0.022 nM. For the same molecule, the “Ratio Maximum cGMP increase vs Baseline” value with Human Platelets was found to be 39.0.

For `CCCc1nc(C)c2c(=O)[nH]c(-c3cc(S(=O)(=O)N4CCC(C(O)(CCO)CCO[N+](=O)[O-])CC4)ccc3OCC)nn12` (stereo not drawn) [Compound 2g, 3-(1-((4-ethoxy-3-(5-methyl-4-oxo-7-propyl-3,4-dihydroimidazo[5,1-f][1,2,4]triazin-2-yl)phenyl)sulfonyl)piperidin-4-yl)-3,5-dihydroxypentyl nitrate], the IC50 in data set [1] was found to be 0.37 nM. Also, in data set [2], the “% Bound in human plasma” value is on record as 98.29%. Besides, the fraction unbound in data set [2] (setting [4]) turned out to be 0.0171. In data set [3], the “Concentration (nM) for 3-fold or 2-fold* cGMP increase vs Baseline” value was 22.2* nM and the “Ratio Maximum cGMP increase vs Baseline” value turned out to be 109.1. Further, the “Ratio Maximum cGMP increase vs Baseline” value in the data set on Human Platelets stood at 183.5.
